This is an account of results in patent US20260158017A1, “KIF18A INHIBITOR” (WIGEN BIOMEDICINE TECHNOLOGY (SHANGHAI) CO., LTD., priority 2021, published 2026).

pIC50: −log10 of the molar value.

The target of the assay is T1, Recombinant human KIF18A (1-467His-tagged) protein (Homo sapiens, UniProt Q8NI77).
T1 construct: Recombinant human KIF18A (1-467His-tagged) protein; His; made in house
T1 sequence (Q8NI77 1-467): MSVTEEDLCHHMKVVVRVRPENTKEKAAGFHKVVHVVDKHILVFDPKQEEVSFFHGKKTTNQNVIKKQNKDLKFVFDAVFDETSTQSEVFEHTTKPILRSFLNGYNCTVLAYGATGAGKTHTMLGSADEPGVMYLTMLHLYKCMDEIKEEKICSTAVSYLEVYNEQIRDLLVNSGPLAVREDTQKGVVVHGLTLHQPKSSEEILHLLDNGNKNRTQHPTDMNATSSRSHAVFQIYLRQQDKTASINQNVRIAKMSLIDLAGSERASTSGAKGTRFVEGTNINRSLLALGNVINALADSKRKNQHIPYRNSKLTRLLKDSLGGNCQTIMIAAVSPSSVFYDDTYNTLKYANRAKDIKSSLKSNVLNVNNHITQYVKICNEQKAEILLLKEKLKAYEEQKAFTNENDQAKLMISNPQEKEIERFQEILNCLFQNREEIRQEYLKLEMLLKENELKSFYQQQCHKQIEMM
T1 sequence (P02550 whole entry partner): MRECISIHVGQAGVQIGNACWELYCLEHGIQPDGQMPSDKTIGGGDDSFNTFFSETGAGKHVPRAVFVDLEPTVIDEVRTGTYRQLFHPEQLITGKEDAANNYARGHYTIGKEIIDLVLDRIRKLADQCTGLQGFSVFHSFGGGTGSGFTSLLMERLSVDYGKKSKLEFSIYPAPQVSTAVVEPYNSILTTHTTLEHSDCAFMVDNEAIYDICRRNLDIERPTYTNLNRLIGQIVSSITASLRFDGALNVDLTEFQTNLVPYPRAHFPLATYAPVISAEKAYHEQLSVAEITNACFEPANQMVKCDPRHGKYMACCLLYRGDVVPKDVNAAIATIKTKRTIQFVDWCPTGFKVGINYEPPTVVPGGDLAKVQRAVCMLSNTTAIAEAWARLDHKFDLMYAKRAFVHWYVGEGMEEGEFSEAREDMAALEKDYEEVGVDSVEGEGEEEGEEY
T1 sequence (P02554 whole entry partner): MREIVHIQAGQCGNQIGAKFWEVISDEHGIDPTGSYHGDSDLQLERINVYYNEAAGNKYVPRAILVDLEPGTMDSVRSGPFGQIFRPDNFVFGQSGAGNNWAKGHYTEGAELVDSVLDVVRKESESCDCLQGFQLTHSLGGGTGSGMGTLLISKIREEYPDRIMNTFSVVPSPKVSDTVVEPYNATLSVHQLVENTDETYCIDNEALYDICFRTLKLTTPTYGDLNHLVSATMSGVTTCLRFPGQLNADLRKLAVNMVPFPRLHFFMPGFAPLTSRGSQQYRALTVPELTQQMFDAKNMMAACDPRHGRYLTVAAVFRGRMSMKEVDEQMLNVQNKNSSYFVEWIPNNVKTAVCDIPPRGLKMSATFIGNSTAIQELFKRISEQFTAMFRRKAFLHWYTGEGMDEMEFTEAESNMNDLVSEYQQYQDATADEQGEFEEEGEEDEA
Nature of the assay: KIF18A enzyme assay (microtubule-stimulated ATPase activity, ADP-Glo). Type of assay: biochemical. The following applies: 30 nM KIF18A, 75 μM ATP, 30 μg/mL pig microtubules; read-out: Inhibitory activity against KIF18A IC50. Summed up: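 Buffer 15 mM Tris pH 7.5, 10 mM MgCl2, 0.01% Pluronic F-68, 1 μM paclitaxel, 30 μg/mL pig microtubules; reactions at room temperature. IC50 from inhibition relative to DMSO.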
As for `O=C(Nc1ccc(S(=O)(=O)NCCO)cc1N1CCC2(CC1)CC2)c1ccc(OCF)c(N2CCOCC2)n1` [Compound 572], the pIC50 was 6.30 to 7.00. On to `C[C@@H](CO)NS(=O)(=O)c1ccc(NC(=O)c2ccc(OCF)c(N3CCC(F)(F)CC3)n2)c(N2CCC3(CC2)CC3)c1` [Compound 573], for which the pIC50 is 6.30 to 7.00.

Take `C[C@H](CO)NS(=O)(=O)c1ccc(NC(=O)c2ccc(OCF)c(N3CCC(F)(F)CC3)n2)c(N2CCC3(CC2)CC3)c1` [Compound 574]: the pIC50 is 6.30 to 7.00. For `C[C@@H]1CN(c2nc(C(=O)Nc3ccc(S(=O)(=O)N[C@@H](C)CO)cc3N3CCC4(CC3)CC4)ccc2OCF)CCO1` [Compound 575], the pIC50 was 6.30 to 7.00. `C[C@H](CO)NS(=O)(=O)c1ccc(NC(=O)c2ccc(OCF)c(N3CCO[C@H](C)C3)n2)c(N2CCC3(CC2)CC3)c1` [Compound 576]: the pIC50 was 6.30 to 7.00. With `CSc1ccc(NC(=O)c2ccc(NS(=O)(=O)CCO)cc2N2CCC3(CC2)CC3)cc1N1CCC(F)(F)CC1` [Compound 577], the pIC50 is at least 7.00. As for `CSc1ccc(NC(=O)c2ccc(NS(=O)(=O)CCO)cc2N2CCC3(CC2)CC3)cc1N1CCO[C@H](C)C1` [Compound 578], the pIC50 is at least 7.00. Then `CSc1ccc(NC(=O)c2ccc(NS(=O)(=O)CCO)cc2N2CCC3(CC2)CC3)cc1N1CCO[C@@H](C)C1` [Compound 579], with at least 7.00; and `CSc1ccc(NC(=O)c2ccc(NS(=O)(=O)CCO)cc2N2CCC3(CC2)CC3)cc1N1CC(F)(F)C1` [Compound 580], with at least 7.00. Turning to `CSc1ccc(NC(=O)c2ccc(NS(=O)(=O)CCO)cc2N2CCC3(CC2)CC3)cc1OCCC(F)(F)F` [Compound 581], the pIC50 was at least 7.00. Next, `CSc1ccc(NC(=O)c2ccc(NS(=O)(=O)CCO)cc2N2CCC3(CC2)CC3)cc1N1CCC2(CC2)C1` [Compound 582]: at least 7.00.

For the molecule `CSc1ccc(NC(=O)c2ccc(NS(=O)(=O)CCO)cc2N2CCC3(CC2)CC3)cc1OC1CCC1` [Compound 583], the pIC50 is at least 7.00. Then `CSc1ccc(NC(=O)c2ccc(NS(=O)(=O)CCO)cc2N2CCC3(CC2)CC3)cc1N1CCC(C)(F)C1` (stereo not drawn) [Compound 584], with at least 7.00; and `CSc1ccc(NC(=O)c2ccc(NS(=O)(=O)CCO)cc2N2CCC3(CC2)CC3)cc1N1CCC(F)CC1` [Compound 585], with at least 7.00; and `CSc1ccc(NC(=O)c2ccc(NS(=O)(=O)CCO)cc2N2CCC3(CC2)CC3)cc1N1CC2CC2C1` (stereo not drawn) [Compound 586], with at least 7.00.

In the case of `CSc1ccc(NC(=O)c2ccc(NS(=O)(=O)CCO)cc2N2CCC3(CC2)CC3)cc1NC(C)(C)CO` [Compound 587], the pIC50 is at least 7.00. Then `CSc1ccc(NC(=O)c2ccc(NS(=O)(=O)CCO)cc2N2CCC3(CC2)CC3)cc1N1CCOCC1` [Compound 588], with at least 7.00; and `CSc1ccc(NC(=O)c2ccc(NS(=O)(=O)[C@@H](C)CO)cc2N2CCC3(CC2)CC3)cc1N1CCC(F)(F)CC1` [Compound 589], with at least 7.00; and `CSc1ccc(NC(=O)c2ccc(NS(=O)(=O)[C@H](C)CO)cc2N2CCC3(CC2)CC3)cc1N1CCC(F)(F)CC1` [Compound 590], with at least 7.00. Then `CSc1ccc(NC(=O)c2ccc(NS(=O)(=O)[C@@H](C)CO)cc2N2CCC3(CC2)CC3)cc1N1CCO[C@H](C)C1` [Compound 591], with at least 7.00; and `CSc1ccc(NC(=O)c2ccc(NS(=O)(=O)[C@H](C)CO)cc2N2CCC3(CC2)CC3)cc1N1CCO[C@H](C)C1` [Compound 592], with at least 7.00. Then `CSc1ccc(NC(=O)c2ccc(NS(=O)(=O)CCO)cc2N2CCC3(CC2)CC3)nc1N1CCO[C@H](C)C1` [Compound 594], with at least 7.00. As for `CSc1ccc(NC(=O)c2ccc(NS(=O)(=O)CCO)cc2N2CCC3(CC2)CC3)nc1N1CCO[C@@H](C)C1` [Compound 595], the negative logarithm of the IC50 (pIC50) was at least 7.00. Then `CSc1ccc(NC(=O)c2ccc(NS(=O)(=O)CCO)cc2N2CCC3(CC2)CC3)nc1N1CC(F)(F)C1` [Compound 596], with at least 7.00; and `CSc1ccc(NC(=O)c2ccc(NS(=O)(=O)CCO)cc2N2CCC3(CC2)CC3)nc1OCCC(F)(F)F` [Compound 597], with at least 7.00.

`CSc1ccc(NC(=O)c2ccc(NS(=O)(=O)CCO)cc2N2CCC3(CC2)CC3)nc1N1CCC2(CC2)C1` [Compound 598]: the negative logarithm of the IC50 (pIC50) was at least 7.00. As for `CSc1ccc(NC(=O)c2ccc(NS(=O)(=O)CCO)cc2N2CCC3(CC2)CC3)nc1OC1CCC1` [Compound 599], the pIC50 was at least 7.00.

As to `CSc1ccc(NC(=O)c2ccc(NS(=O)(=O)CCO)cc2N2CCC3(CC2)CC3)nc1N1CCC(C)(F)C1` (stereo not drawn) [Compound 600], the negative logarithm of the IC50 (pIC50) is at least 7.00. As for `CSc1ccc(NC(=O)c2ccc(NS(=O)(=O)CCO)cc2N2CCC3(CC2)CC3)nc1N1CCC(F)CC1` [Compound 601], the pIC50 was at least 7.00.

In the case of `CSc1ccc(NC(=O)c2ccc(NS(=O)(=O)CCO)cc2N2CCC3(CC2)CC3)nc1N1CC2CC2C1` (stereo not drawn) [Compound 602], the pIC50 is at least 7.00.

With `CSc1ccc(NC(=O)c2ccc(NS(=O)(=O)CCO)cc2N2CCC3(CC2)CC3)nc1NC(C)(C)CO` [Compound 603], the pIC50 is at least 7.00.

For `CSc1ccc(NC(=O)c2ccc(NS(=O)(=O)CCO)cc2N2CCC3(CC2)CC3)nc1N1CCOCC1` [Compound 604], the pIC50 is at least 7.00.

As to `CSc1ccc(NC(=O)c2ccc(NS(=O)(=O)[C@@H](C)CO)cc2N2CCC3(CC2)CC3)nc1N1CCC(F)(F)CC1` [Compound 605], the pIC50 was at least 7.00.

Take `CSc1ccc(NC(=O)c2ccc(NS(=O)(=O)[C@H](C)CO)cc2N2CCC3(CC2)CC3)nc1N1CCC(F)(F)CC1` [Compound 606]: the pIC50 was at least 7.00. For `CSc1ccc(NC(=O)c2ccc(NS(=O)(=O)[C@@H](C)CO)cc2N2CCC3(CC2)CC3)nc1N1CCO[C@H](C)C1` [Compound 607], the pIC50 was at least 7.00. Take `CSc1ccc(NC(=O)c2ccc(NS(=O)(=O)[C@H](C)CO)cc2N2CCC3(CC2)CC3)nc1N1CCO[C@H](C)C1` [Compound 608]: the negative logarithm of the IC50 (pIC50) is at least 7.00.

On to `CSc1ccc(NC(=O)c2cnc(NS(=O)(=O)CCO)cc2N2CCC3(CC2)CC3)cc1N1CCC(F)(F)CC1` [Compound 609], for which the pIC50 was at least 7.00.

Turning to `CSc1ccc(NC(=O)c2cnc(NS(=O)(=O)CCO)cc2N2CCC3(CC2)CC3)cc1N1CCO[C@H](C)C1` [Compound 610], the pIC50 is at least 7.00. For the molecule `CSc1ccc(NC(=O)c2cnc(NS(=O)(=O)CCO)cc2N2CCC3(CC2)CC3)cc1N1CCO[C@@H](C)C1` [Compound 611], the pIC50 was at least 7.00. Then `CSc1ccc(NC(=O)c2cnc(NS(=O)(=O)CCO)cc2N2CCC3(CC2)CC3)cc1N1CC(F)(F)C1` [Compound 612], with at least 7.00.

For the molecule `CSc1ccc(NC(=O)c2cnc(NS(=O)(=O)CCO)cc2N2CCC3(CC2)CC3)cc1OCCC(F)(F)F` [Compound 613], the pIC50 was at least 7.00. Next, `CSc1ccc(NC(=O)c2cnc(NS(=O)(=O)CCO)cc2N2CCC3(CC2)CC3)cc1N1CCC2(CC2)C1` [Compound 614]: at least 7.00; `CSc1ccc(NC(=O)c2cnc(NS(=O)(=O)CCO)cc2N2CCC3(CC2)CC3)cc1OC1CCC1` [Compound 615]: at least 7.00.

`CSc1ccc(NC(=O)c2cnc(NS(=O)(=O)CCO)cc2N2CCC3(CC2)CC3)cc1N1CCC(C)(F)C1` (stereo not drawn) [Compound 616]: the pIC50 is at least 7.00.

Regarding `CSc1ccc(NC(=O)c2cnc(NS(=O)(=O)CCO)cc2N2CCC3(CC2)CC3)cc1N1CCC(F)CC1` [Compound 617], the pIC50 is at least 7.00. Then `CSc1ccc(NC(=O)c2cnc(NS(=O)(=O)CCO)cc2N2CCC3(CC2)CC3)cc1N1CC2CC2C1` (stereo not drawn) [Compound 618], with at least 7.00; and `CSc1ccc(NC(=O)c2cnc(NS(=O)(=O)CCO)cc2N2CCC3(CC2)CC3)cc1NC(C)(C)CO` [Compound 619], with at least 7.00; and `CSc1ccc(NC(=O)c2cnc(NS(=O)(=O)CCO)cc2N2CCC3(CC2)CC3)cc1N1CCOCC1` [Compound 620], with at least 7.00. Then `CSc1ccc(NC(=O)c2cnc(NS(=O)(=O)[C@@H](C)CO)cc2N2CCC3(CC2)CC3)cc1N1CCC(F)(F)CC1` [Compound 621], with at least 7.00; and `CSc1ccc(NC(=O)c2cnc(NS(=O)(=O)[C@H](C)CO)cc2N2CCC3(CC2)CC3)cc1N1CCC(F)(F)CC1` [Compound 622], with at least 7.00. Next, `CSc1ccc(NC(=O)c2cnc(NS(=O)(=O)[C@@H](C)CO)cc2N2CCC3(CC2)CC3)cc1N1CCO[C@H](C)C1` [Compound 623]: at least 7.00; `CSc1ccc(NC(=O)c2cnc(NS(=O)(=O)[C@H](C)CO)cc2N2CCC3(CC2)CC3)cc1N1CCO[C@H](C)C1` [Compound 624]: at least 7.00. As for `CSc1ccc(NC(=O)c2cnc(NS(=O)(=O)CCO)cc2N2CCC3(CC2)CC3)nc1N1CCC(F)(F)CC1` [Compound 625], the pIC50 was at least 7.00. In the case of `CSc1ccc(NC(=O)c2cnc(NS(=O)(=O)CCO)cc2N2CCC3(CC2)CC3)nc1N1CCO[C@H](C)C1` [Compound 626], the pIC50 is at least 7.00. Then `CSc1ccc(NC(=O)c2cnc(NS(=O)(=O)CCO)cc2N2CCC3(CC2)CC3)nc1N1CCO[C@@H](C)C1` [Compound 627], with at least 7.00; and `CSc1ccc(NC(=O)c2cnc(NS(=O)(=O)CCO)cc2N2CCC3(CC2)CC3)nc1N1CC(F)(F)C1` [Compound 628], with at least 7.00; and `CSc1ccc(NC(=O)c2cnc(NS(=O)(=O)CCO)cc2N2CCC3(CC2)CC3)nc1OCCC(F)(F)F` [Compound 629], with at least 7.00.

Turning to `CSc1ccc(NC(=O)c2cnc(NS(=O)(=O)CCO)cc2N2CCC3(CC2)CC3)nc1N1CCC2(CC2)C1` [Compound 630], the pIC50 was at least 7.00.

Take `CSc1ccc(NC(=O)c2cnc(NS(=O)(=O)CCO)cc2N2CCC3(CC2)CC3)nc1OC1CCC1` [Compound 631]: the negative logarithm of the IC50 (pIC50) was at least 7.00. Then `CSc1ccc(NC(=O)c2cnc(NS(=O)(=O)CCO)cc2N2CCC3(CC2)CC3)nc1N1CCC(C)(F)C1` (stereo not drawn) [Compound 632], with at least 7.00.
